{"source": "patent US4766212A", "about": "“2H-[1]benzoxepino[5,4-b]-1,4-oxazine derivatives” (Merrell Dow Pharmaceuticals Inc., priority 1987, dated 1988)", "key": {"[1]": {"tested_on": "mice", "assay": "Reduction of motor ability, rotorod", "type": "in vivo", "conditions": "Mus musculus, ip, 50% decrease in mean time on the rotorod", "method": "Following a method of Kinnard and Carr, J. Pharmacol. Exp. Therap., 121, 354 (1957), groups of 10 mice are preselected for their ability to remain upon a horizontal rotating (15 rpm) rod (rotorod) for 120 seconds. The mice are dosed with the test compound and tested at various times. The percent change in mean time upon the rotorod from the pre-drug control time of 120 seconds is calculated for each dose group. […] The ED50 is defined as the dose of compound producing a 50% decrease in mean time on the rotorod."}, "[2]": {"tested_on": "morphine-induced Straub tail", "assay": "Antagonism of morphine-induced Straub tail (muscle relaxant activity)", "type": "in vivo", "conditions": "Mus musculus, ip; mice, i.p., 15 min before morphine sulfate s.c.", "method": "The characteristic elevation of the mouse tail (Straub tail) following morphine administration is due to a sustained, centrally mediated reflex contraction of the sacrococcygeus dorsalis muscle. Five to ten mice are used in each test, weight (18 to 30 grams) and placed in a Plexiglass observation chamber 2 to 3 minutes prior to injection. Animals are treated with the test compound at log doses, ca. 10 ml/kg, based upon the ED50 obtained from the Rotorod test (reduction of motor ability). Fifteen minutes later the desired dose of morphine sulfate, ca. 10 ml/kg, is injected subcutaneously and the mice observed for a period of 30 minutes following morphine administration for the presence or absence of Straub tail (defined as elevation of tail at 90° C. or more)."}, "[3]": {"tested_on": "mice", "assay": "Acetic acid writhing syndrome test for analgesic activity", "type": "in vivo, mouse", "conditions": "for ED50: Mus musculus, sc", "method": "J. Pharmacol., 22, 2246 (1964).\nGroups of 5 to 10 mice are administered one or more doses of the test compound by the desired route (but not intraperitoneally). At a selected time the mice are administered acetic acid, 0.4 ml (0.25% v/v solution) i.p. Five minutes later, the mice are observed for a period of 15 minutes to determine the appearance of squirming (abdominal writhing), and the number of squirms for each mouse is determined.\nFor ED50 determination, four or more doses of compound are tested in groups of 10 mice. The following ED50 's for analgesic activity were observed and determined."}, "[4]": {"tested_on": "Spontaneously hypertensive rats", "assay": "Systolic arterial blood pressure in spontaneously hypertensive rats (antihypertensive activity)", "type": "in vivo, rat", "conditions": "for Change In Systolic Blood Pressure From Control Post Treatment: * p < 0.05", "method": "Spontaneously hypertensive rates (males 250-300 g), obtained from the Charles River Breeding Laboratories, are divided into different treatment groups of 12 rats each. On separate days, one group of 12 rats is given 3, 10 or 30 mg/kg of the test compound, trans-3,4,4a,5,6,11b-hexahydro-10-fluoro-2H-[1]benzoxepino[5,4-b]-1,4-oxazine hydrochloride, by gavage and another group of 12 rats is given water (vehicle, 5 ml/kg).\nSystolic arterial blood pressure is recorded from the tail of each rat using an occluding cuff and transducer. Systolic arterial blood pressure is recorded prior and subsequent to the administration of drug or vehicle at 1, 2, 3 and 4 hours post treatment."}, "[5]": {"conditions": "0.5 h, oral, pretreatment time 30 minutes"}, "[6]": {"conditions": "0.5 h, subcutaneous, pretreatment time 30 minutes"}, "[7]": {"conditions": "1 h, subcutaneous, pretreatment time 60 minutes"}, "[8]": {"conditions": "2 h, subcutaneous, pretreatment time 120 minutes"}}, "data": [{"smiles": "Cl.c1ccc2c(c1)OCC[C@H]1NCCO[C@H]21", "note": "(relative stereo) [Trans-3,4,4a,5,6,11b-Hexahydro-2H-[1]benzoxepino-[5,4-b]-1,4-oxazine Hydrochloride]", "values": [{"measurement": "ED50", "setting": "[1]", "value": 23.9, "unit": "mg/kg"}, {"measurement": "ED50", "setting": "[2]", "value": 1.03, "unit": "mg/kg"}]}, {"smiles": "CN1CCO[C@@H]2c3ccccc3OCC[C@H]21.O=C(O)/C=C\\C(=O)O", "note": "(relative stereo) [Trans-3,4,4a,5,6,11b-Hexahydro-4-methyl-2H-[1]benzoxepino[5,4-b]-1,4-oxazine Maleate]", "values": [{"measurement": "ED50", "setting": "[1]", "value": 12.4, "unit": "mg/kg"}, {"measurement": "ED50", "setting": "[2]", "value": 2.89, "unit": "mg/kg"}, {"measurement": "ED50", "setting": "[3]; [5]", "value": 42.8, "unit": "mg/kg"}, {"measurement": "ED50", "setting": "[3]; [6]", "value": 4.35, "unit": "mg/kg"}, {"measurement": "ED50", "setting": "[3]; 1 h, oral, pretreatment time 60 minutes", "value": 52.2, "unit": "mg/kg"}, {"measurement": "ED50", "setting": "[3]; [7]", "value": 13.8, "unit": "mg/kg"}, {"measurement": "ED50", "setting": "[3]; [8]", "value": 26.6, "unit": "mg/kg"}, {"measurement": "analgesic effect in brackets beside the ED50", "setting": "[3]; subcutaneous, pretreatment time 120 minutes, @ 256 mg/kg", "value": 50, "unit": "%"}]}, {"smiles": "CCN1CCO[C@@H]2c3ccccc3OCC[C@H]21", "note": "(relative stereo) [Trans-4-Ethyl-3,4,4a,5,6,11b-hexahydro-2H-[1]benzoxepino[5,4-b]-1,4-oxazine]", "values": [{"measurement": "ED50", "setting": "[3]; [5]", "value": 6.8, "unit": "mg/kg"}, {"measurement": "ED50", "setting": "[3]; [6]", "value": 1.5, "unit": "mg/kg"}, {"measurement": "ED50", "setting": "[3]; [7]", "value": 8.8, "unit": "mg/kg"}, {"measurement": "ED50", "setting": "[3]; [8]", "value": "> 128", "unit": "mg/kg"}]}, {"smiles": "Cl.Fc1ccc2c(c1)[C@H]1OCCN[C@@H]1CCO2", "note": "(relative stereo) [trans-3,4,4a,5,6,11b-hexahydro-10-fluoro-2H-[1]benzoxepino[5,4-b]-1,4-oxazine hydrochloride]", "values": [{"measurement": "Change In Systolic Blood Pressure From Control Post Treatment", "setting": "[4]; 3 mg/kg by gavage, 1 Hour", "value": -15, "unit": "mm Hg"}, {"measurement": "Change In Systolic Blood Pressure From Control Post Treatment", "setting": "[4]; 3 mg/kg by gavage, 2 Hours", "value": -20, "unit": "mm Hg"}, {"measurement": "Change In Systolic Blood Pressure From Control Post Treatment", "setting": "[4]; 3 mg/kg by gavage, 3 Hours", "value": -22, "unit": "mm Hg"}, {"measurement": "Change In Systolic Blood Pressure From Control Post Treatment", "setting": "[4]; 3 mg/kg by gavage, 4 Hours", "value": -24, "unit": "mm Hg"}, {"measurement": "Change In Systolic Blood Pressure From Control Post Treatment", "setting": "[4]; 10 mg/kg by gavage, 1 Hour", "value": -52, "unit": "mm Hg"}, {"measurement": "Change In Systolic Blood Pressure From Control Post Treatment", "setting": "[4]; 10 mg/kg by gavage, 2 Hours", "value": -44, "unit": "mm Hg"}, {"measurement": "Change In Systolic Blood Pressure From Control Post Treatment", "setting": "[4]; 10 mg/kg by gavage, 3 Hours", "value": -42, "unit": "mm Hg"}, {"measurement": "Change In Systolic Blood Pressure From Control Post Treatment", "setting": "[4]; 10 mg/kg by gavage, 4 Hours", "value": -45, "unit": "mm Hg"}, {"measurement": "Change In Systolic Blood Pressure From Control Post Treatment", "setting": "[4]; 30 mg/kg by gavage, 1 Hour", "value": -84, "unit": "mm Hg"}, {"measurement": "Change In Systolic Blood Pressure From Control Post Treatment", "setting": "[4]; 30 mg/kg by gavage, 2 Hours", "value": -73, "unit": "mm Hg"}, {"measurement": "Change In Systolic Blood Pressure From Control Post Treatment", "setting": "[4]; 30 mg/kg by gavage, 3 Hours", "value": -73, "unit": "mm Hg"}, {"measurement": "Change In Systolic Blood Pressure From Control Post Treatment", "setting": "[4]; 30 mg/kg by gavage, 4 Hours", "value": -72, "unit": "mm Hg"}, {"measurement": "effect on systolic arterial blood pressure, in words", "setting": "[4]; 3, 10, 30 mg/kg by gavage", "value": "dose related decrease in systolic arterial blood pressure that is statistically significant"}, {"measurement": "duration of the anti-hypertensive effect", "setting": "[4]; at the three doses tested (3, 10, 30 mg/kg, gavage)", "value": "at least 4 hours"}]}]}
